Laboratory results as given in article PMC3715147 (Journal of natural products, 2013).

Columns and labels:
HIV-1 NL4-3 = assay: Anti-HIV assay: HIV-1 NL4-3 replication in MT4 cells; type: cell-based; conditions: Human immunodeficiency virus 1, NL43, Lymphocyte, read-out: anti-HIV EC90
HIV-1 R5 viruses = conditions: cited from earlier work
X4 or dual tropic HIV-1 = conditions: peripheral blood mononuclear cells (PBMCs); cited from earlier work

| Structure (SMILES) | EC90 (HIV-1 NL4-3) [nM] | inhibition of HIV-1 R5 viruses (in words) (HIV-1 R5 viruses) | activity against X4 or dual tropic HIV-1 replication (in words) (X4 or dual tropic HIV-1) |
| --- | --- | --- | --- |
| CCCCCCCCCC(=O)O[C@@]12[C@H](OC(=O)c3ccccc3)[C@@H](C)[C@@]3(O)[C@@H](C=C(CO)C[C@]4(O)C(=O)C(C)=C[C@@H]34)[C@@H]1C2(C)C [Compound 1, stellerarin] | < 1 | – | – |
| CCCCCCCC(=O)O[C@]12[C@H]([C@@H]3C=C(CO)C[C@]4(O)C(=O)C(C)=C[C@H]4[C@@]3(O)C[C@H]1OC(=O)c1ccccc1)C2(C)C [Compound 2, 12-O-benzoylphorbol 13-octanoate] | < 1 | – | – |
| CCCCC/C=C\CCC(=O)O[C@@]12[C@H](OC(=O)c3ccccc3)[C@@H](C)[C@@]3(O)[C@@H](C=C(CO)C[C@]4(O)C(=O)C(C)=C[C@@H]34)[C@@H]1C2(C)C [Compound 3, stelleracin A] | < 1 | – | – |
| C=C(C)[C@@]12C[C@@H](COC(=O)c3ccccc3)[C@@]34OC5(O[C@@H]1[C@@H]3[C@@H]1O[C@]1(CO)[C@@H](O)[C@@]1(O)[C@H]4[C@H]([C@H](C)[C@@H]1OC(=O)c1ccccc1)[C@H](C)CCCCCC[C@H]5O)O2 [gnidimacrin] | – | potent inhibitor | essentially inactive |
